Experimental data taken from patent US20260085082A1, “KDM1A INHIBITORS FOR THE TREATMENT OF DISEASE” (Imago Biosciences, Inc., priority 2022, published 2026).
Where two headings read alike, the source gives them in different places.

Legend:
MV4;11 cells = test: Cell Titer-Glo Luminescent Cell Viability Assay, cell growth inhibition against MV4;11 cells; type: cell-based; settings: Homo sapiens
Procedure: Cell growth inhibition against MV4;11 cells was confirmed for the synthetic compounds. The Cell Titer-Glo Luminescent Cell Viability Assay (Promega, USA) was used to determine the number of viable cells in culture based on quantitation of the ATP present, which signals the presence of metabolically active cells. This assay was run in a 96-well plate format arrayed in a 10-point dose curve, ranging from 0 to 50 μM with 4-fold dilutions for each compound. Cells are seeded on Day 0 at 3750 cells per well. At Day 5, a portion of each well is assayed for viability according to the Cell Titer-Glo protocol. Briefly, cells/plates were centrifuged at 1100×g for 5 minutes. 100 μL of media was removed from each well and replaced with 100 μL of CellTiter-Glo. The plates were shaken at room temperature for 10 minutes and measured on a luminescence plate reader. Another portion of each well from the Day 5 plate is used to seed a new 96 plate containing fresh compound and media set up in the equivalent 10-point dose curve array in order to continue the cell growth inhibition assay for another 5 days. A final timepoint is collected at Day 10 using the Cell Titer-Glo protocol. Luminescence was detected on an EnVision® Multilabel Plate Reader (Perkin Elmer, Waltham, Mass.) and IC50 determination was made using Graph Pad Prism software.

LSD1 = LSD1 (Homo sapiens, UniProt O60341); test: LSD1 10-dose IC50 fluorescence coupling enzyme assay (HRP/Amplex Red, resorufin); type: biochemical; settings: 10 M histone H3(1-21)K4me2 peptide substrate; 3-fold serial dilution in duplicate starting at 100 μM
Procedure: Compounds were tested in a 10-dose IC50 mode fluorescence coupling enzyme assay with 3-fold serial dilution in duplicate starting at 100 μM. The production of FAD-dependent H2O2 as a result of demethylase activity of LSD1 on […] histone H3(1-21)K4me2 peptide substrate was measured by coupling with HRP and Amplex Red to yield resorufin (fluorescence measured at Ex/Em=535/590 nm on EnVision, Perkin Elmer).

[1] = MV4-11, 120 h, MV4;11 cells, Day 5, 10-point dose curve 0 to 50 μM, read-out: Cell Titer Glo IC50 (5 d)
[2] = MV4-11, MV4;11 cells, Day 10 (re-seeded at Day 5 with fresh compound), 10-point dose curve 0 to 50 μM, read-out: Cell Titer Glo IC50 (10 d)

Row | IC50 (MV4;11 cells; [1]) [nM] | IC50 (LSD1) [nM] | Compound | IC50 (MV4;11 cells; [2]) [nM]
1 | 1000 to 10000 | 1000 to 10000 | COc1ccc(-n2nc(C(=O)N[C@H]3CCC[C@H](N)C3)cc2-c2ccc(C#N)c(F)c2)cc1 [Example 25, N-((1S,3S)-3-aminocyclohexyl)-5-(4-cyano-3-fluorophenyl)-1-(4-methoxyphenyl)-1H-pyrazole-3-carboxamide 2,2,2-trifluoroacetate] | –
2 | 1000 to 10000 | 1000 to 10000 | COc1ccc(-n2nc(NC(=O)[C@H]3CC[C@H](N)CC3)cc2-c2ccc(C#N)c(F)c2)cc1 [Example 91, (1R,4R)-4-Amino-N-(5-(4-cyano-3-fluorophenyl)-1-(4-methoxyphenyl)-1H-pyrazol-3-yl)cyclohexane-1-carboxamide 2,2,2-trifluoroacetate] | –
3 | – | < 500 | CN1CCN(c2ccc(-n3nc(C(=O)N4CCC[C@@H](N)C4)cc3-c3ccc(C#N)c(F)c3)cc2)CC1=O [Example 50, (R)-4-(3-(3-aminopiperidine-1-carbonyl)-1-(4-(4-methyl-3-oxopiperazin-1-yl)phenyl)-1H-pyrazol-5-yl)-2-fluorobenzonitrile] | < 500
4 | – | < 500 | N#Cc1ccc(-c2cc(C(=O)N3CCC[C@@H](N)C3)nn2-c2ccc(N3CCC(OCCO)CC3)cc2)cc1F [Example 45, (R)-4-(3-(3-aminopiperidine-1-carbonyl)-1-(4-(4-(2-hydroxyethoxy)piperidin-1-yl)phenyl)-1H-pyrazol-5-yl)-2-fluorobenzonitrile] | < 500
5 | 1000 to 10000 | 1000 to 10000 | COc1ccc(-n2nc(C(=O)NC3CCCNC3)cc2-c2ccc(C#N)cc2)cc1 (stereo not drawn) [Example 3, 5-(4-Cyanophenyl)-1-(4-methoxyphenyl)-N-(piperidin-3-yl)-1H-pyrazole-3-carboxamide 2,2,2-trifluoroacetate] | –
6 | 1000 to 10000 | < 500 | Cc1ccc(-n2nc(C(=O)N3CCC(N)CC3)cc2-c2ccc(C#N)c(F)c2)cc1 [Example 9, 4-(3-(4-Aminopiperidine-1-carbonyl)-1-(p-tolyl)-1H-pyrazol-5-yl)-2-fluorobenzonitrile] | –
7 | 1000 to 10000 | > 10000 | Cc1cc(CCn2nc(C(=O)N3CCC[C@@H](N)C3)cc2-c2ccc(C#N)c(F)c2)on1 [Example 38, (R)-4-(3-(3-aminopiperidine-1-carbonyl)-1-(2-(3-methylisoxazol-5-yl)ethyl)-1H-pyrazol-5-yl)-2-fluorobenzonitrile] | –
8 | – | < 500 | CN1CCN(c2ccc(-n3nc(C(=O)N4CCC[C@@H](N)C4)cc3-c3ccc(C#N)c(F)c3)c(F)c2)CC1=O [Example 68, (R)-4-(3-(3-aminopiperidine-1-carbonyl)-1-(2-fluoro-4-(4-methyl-3-oxopiperazin-1-yl)phenyl)-1H-pyrazol-5-yl)-2-fluorobenzonitrile] | < 500
9 | 1000 to 10000 | < 500 | Cn1cc2cc(-n3nc(-c4ccc(C#N)c(F)c4)cc3C(=O)N3CCCC(N)C3)ccc2n1 (stereo not drawn) [Example 41, 4-(5-(3-Aminopiperidine-1-carbonyl)-1-(2-methyl-2H-indazol-5-yl)-1H-pyrazol-3-yl)-2-fluorobenzonitrile] | –
10 | 1000 to 10000 | 1000 to 10000 | COc1ccc(-n2nc(C(=O)N3CC(CN)C3)cc2-c2ccc(C#N)c(F)c2)cc1 [Example 32, 4-(3-(3-(Aminomethyl)azetidine-1-carbonyl)-1-(4-methoxyphenyl)-1H-pyrazol-5-yl)-2-fluorobenzonitrile 2,2,2-trifluoroacetate] | –
11 | – | 1000 to 10000 | COc1ccc(-n2nc(C(=O)N3CCC(NC(=N)N)CC3)cc2-c2ccc(C#N)c(F)c2)cc1 [Example 30, 1-(1-(5-(4-Cyano-3-fluorophenyl)-1-(4-methoxyphenyl)-1H-pyrazole-3-carbonyl)piperidin-4-yl)guanidine 2,2,2-trifluoroacetate] | –
12 | 1000 to 10000 | 500 to 1000 | COc1ccc(Cn2nc(C(=O)N3CCC[C@H](N)C3)cc2-c2ccc(C#N)c(F)c2)cc1 [Example 34, (S)-4-(3-(3-aminopiperidine-1-carbonyl)-1-(4-methoxybenzyl)-1H-pyrazol-5-yl)-2-fluorobenzonitrile 2,2,2-trifluoroacetate] | –
13 | > 10000 | < 500 | Cc1ccc(-n2nc(C(=O)N3CCC(CN)CC3)cc2-c2ccc(C#N)c(F)c2)cc1 [Example 8, 4-(3-(4-(Aminomethyl)piperidine-1-carbonyl)-1-(p-tolyl)-1H-pyrazol-5-yl)-2-fluorobenzonitrile] | –
14 | – | 1000 to 10000 | COC1CCN(c2ccc(-n3nc(C(=O)N4CCC[C@@H](N)C4)cc3-c3ccc(C#N)c(F)c3)nc2)CC1 [Example 53, (R)-4-(3-(3-aminopiperidine-1-carbonyl)-1-(5-(4-methoxypiperidin-1-yl)pyridin-2-yl)-1H-pyrazol-5-yl)-2-fluorobenzonitrile 2,2,2-trifluoroacetate] | < 500
15 | < 500 | < 500 | Cc1ccc(-n2nc(C(=O)N3CCC[C@H](N)C3)cc2-c2ccc(C#N)c(F)c2)cc1 [Example 12, (S)-4-(3-(3-Aminopiperidine-1-carbonyl)-1-(p-tolyl)-1H-pyrazol-5-yl)-2-fluorobenzonitrile] | < 500
16 | < 500 | < 500 | COc1ccc(-n2nc(C(=O)N3CCCC(N)C3)cc2-c2ccc(C#N)c(F)c2)cc1 (stereo not drawn) [Example 16, 4-(3-(3-Aminopiperidine-1-carbonyl)-1-(4-methoxyphenyl)-1H-pyrazol-5-yl)-2-fluorobenzonitrile] | –
17 | < 500 | < 500 | N#Cc1ccc(-c2cc(C(=O)N3CCC[C@H](N)C3)nn2-c2ccc(N3CCCC3)cc2)cc1F [Example 61, (S)-4-(3-(3-aminopiperidine-1-carbonyl)-1-(4-(pyrrolidin-1-yl)phenyl)-1H-pyrazol-5-yl)-2-fluorobenzonitrile 2,2,2-trifluoroacetate] | < 500
18 | – | < 500 | CN1CCN(c2ccc(-n3nc(-c4ccc(C#N)c(F)c4)cc3C(=O)N3CCC[C@@H](N)C3)cc2F)CC1 [Example 80, (R)-4-(5-(3-aminopiperidine-1-carbonyl)-1-(3-fluoro-4-(4-methylpiperazin-1-yl)phenyl)-1H-pyrazol-3-yl)-2-fluorobenzonitrile 2,2,2-trifluoroacetate] | –
19 | – | < 500 | N#Cc1ccc(-c2cc(C(=O)N3CCC[C@@H](N)C3)nn2-c2ccc(N3CCNC(=O)C3)cc2)cc1F [Example 49, (R)-4-(3-(3-aminopiperidine-1-carbonyl)-1-(4-(3-oxopiperazin-1-yl)phenyl)-1H-pyrazol-5-yl)-2-fluorobenzonitrile] | –
20 | – | < 500 | COc1cc(N2CCNC(=O)C2)ccc1-n1nc(C(=O)N2CCC[C@@H](N)C2)cc1-c1ccc(C#N)c(F)c1 [Example 51, (R)-4-(3-(3-aminopiperidine-1-carbonyl)-1-(2-methoxy-4-(3-oxopiperazin-1-yl)phenyl)-1H-pyrazol-5-yl)-2-fluorobenzonitrile] | –
21 | – | < 500 | CN1CCN(c2ccc(-n3nc(C(=O)N4CCC[C@@H](N)C4)cc3-c3ccc(C#N)c(F)c3)c(F)c2)CC1 [Example 67, (R)-4-(3-(3-aminopiperidine-1-carbonyl)-1-(2-fluoro-4-(4-methylpiperazin-1-yl)phenyl)-1H-pyrazol-5-yl)-2-fluorobenzonitrile] | –
